Each structure is given as a SMILES string. Like-named read-outs stand apart in the source and are kept apart here. Bridge positions count the residues as written; N and C are the ends. Square brackets hold non-standard residues; d marks the D form. Peptide text beside a SMILES is read from it. S5 = C=CCCC[C@](C)(N)C(=O)O Some results are limits rather than exact numbers.

For one data set, the system named is HIV-1 AZT-R. Conditions: read-out: IC50 (μM ± SD), HIV-1 AZT-R; RT-resistant isolate, subtype B, MT-2, coreceptor X4. How it is done:
(§1) The inhibitory activity of NYAD-201, and related stapled peptides on infection by laboratory-adapted HIV-1 strains was determined as previously described (Jiang et al. J Exp. Med 174:1557-1563, 1991) with minor modifications. Azidothymidine (AZT) was used as a positive control in the infectivity assays. In brief, 1×10^4 MT-2 cells were infected with HIV-1 at 100 TCID50 (50% tissue culture infective dose) (0.01 MOI [multiplicity of infection]) in 200 μl RPMI 1640 medium containing 10% FBS in the presence or absence of peptides at graded concentrations overnight. The culture supernatants were then removed and fresh media containing freshly prepared test peptide were added. On the fourth day post-infection, 100 μl of culture supernatants were collected from each well, mixed with equal volume of 5% Triton X-100 and tested for p24 antigen by ELISA.
(§2) In addition, NYAD-201, NYAD-202 and NYAD-203 were also tested using several laboratory-adapted and primary isolates in MT-2 cells and PBMC (peripheral blood mononuclear cells), respectively.

Another data set has as its system HIV-1 IIIB. The protocol:
as §1, §2

A further data set has as its system HIV-1 MN. Conditions: read-out: IC50 (μM ± SD), HIV-1 MN; laboratory strain, subtype B, MT-2, coreceptor X4. How it is done:
as §1, §2

The next data set concerns HIV-1 RF. Particulars: read-out: IC50 (μM ± SD), HIV-1 RF; laboratory strain, subtype B, MT-2, coreceptor X4. The protocol:
as §1, §2

The next data set deals with HIV-1 SF2. Conditions: read-out: IC50 (μM ± SD), HIV-1 SF2; laboratory strain, subtype B, MT-2, coreceptor R5X4. How it is done:
as §1, §2

The next data set relates to HIV-1RF/L-323-12-3. Particulars: read-out: IC50 (μM ± SD), HIV-1RF/L-323-12-3; PR-resistant isolate, subtype B, MT-2, coreceptor X4. The protocol:
as §1, §2

Data set [1] can be described thus: Cytotoxicity, XTT method, MT-2 cells. The data set is classed as cell-based, human. Particulars: human, read-out: CC50 (μM) ± SD, cytotoxicity in MT-2 cells. How it is done: (§3) Cytotoxicity of peptides in MT-2 cells and PBMC was measured by the XTT [(sodium 3′-(1-(phenylamino)-carbonyl)-3,4-tetrazolium-bis(4-methoxy-6-nitro) bezenesulfonic acid hydrate)] method as previously described (Jiang et al., 2004). Briefly, for MT-2 cells, 100 μl of a peptide at graded concentrations was added to an equal volume of cells (1×10^5 cells/ml) in 96-well plates followed by incubation at 37° C. for 4 days, which ran parallel to the neutralization assay in MT-2 (except medium was added instead of virus). In the case of PBMC, 5×10^5 cells/ml were used and the cytotoxicity was measured after 7 days. After addition of XTT (PolySciences, Inc.), the soluble intracellular formazan was quantitated colorimetrically at 450 nm 4 hr later with a reference at 620 nm. The percent of cytotoxicity and the CC50 values were calculated as above (Table 2 and Table 3).
Background: Formazan colour is commonly taken as a measure of viable cells.

For another data set, the system named is MT-2 cells. Kind of data set: Cytotoxicity, XTT method, MT-2 cells. The data set is classed as cell-based, human. Particulars: 4 days. How it is done:
as §3

Data set [2] can be described thus: Cytotoxicity, XTT method, PBMC. The data set is classed as cell-based. Particulars: human. How it is done:
as §3

As a reminder, the CC50 is the concentration that lowers cell viability or growth by half. Consider `CSCC[C@@H]1NC(=O)[C@H](Cc2c[nH]c3ccccc23)NC(=O)[C@@](C)(NC(=O)[C@H](CCCCN)NC(=O)[C@@H](NC(=O)[C@H](CCC(=O)O)NC(=O)[C@H](CCC(N)=O)NC(=O)[C@H](C)N)C(C)C)CCCC=CCCC[C@@](C)(C(=O)N[C@H](C(=O)N[C@@H](CC(C)C)C(=O)N[C@@H](CC(C)C)C(=O)N[C@H](C(=O)N[C@@H](C)C(N)=O)C(C)C)[C@@H](C)O)NC(=O)[C@H]([C@@H](C)O)NC1=O` [NYAD-201, AQEVKXWMTXTLLVA] (H-AQEVK[S5]WMT[S5]TLLVA-NH2; staple 6-10), for which the IC50 in the data set with HIV-1 AZT-R worked out at 8 ± 1.27 µM; with HIV-1 IIIB (read-out: IC50 (μM ± SD), HIV-1 IIIB, laboratory strain, subtype B, MT-2, coreceptor X4), 4.29 ± 0.62 µM; in the data set on HIV-1 IIIB (read-out: IC50 (μM) ± SD, antiviral activity against HIV-1 IIIB, MT-2 cells, p24 production, fourth day post-infection), 4.29 ± 0.62 µM; in the data set on HIV-1 MN it was 3.03 ± 0.61 µM; in the data set on HIV-1 RF, 2.84 ± 0.63 µM; in the data set on HIV-1 SF2, 5.06 ± 1.37 µM. Besides, the IC50 with HIV-1RF/L-323-12-3 amounted to 5.6 ± 0.5 µM. Besides, in [1], the CC50 at 4 days is over 115 µM. Besides, in the data set with MT-2 cells, the cytotoxic concentration (CC50) is over 115 µM. Also, in data set [2], the CC50 at 7 days is over 115 µM.

The values above are taken from US8933019B2, “Antiviral cell-penetrating peptides” (priority 2008, dated 2015).
